Target: T1, h-TRAAK (Homo sapiens, UniProt Q9NYG8)
T1 construct: expressed in transfected cells; host or cells: HEK 293
T1 sequence (Q9NYG8 1-393): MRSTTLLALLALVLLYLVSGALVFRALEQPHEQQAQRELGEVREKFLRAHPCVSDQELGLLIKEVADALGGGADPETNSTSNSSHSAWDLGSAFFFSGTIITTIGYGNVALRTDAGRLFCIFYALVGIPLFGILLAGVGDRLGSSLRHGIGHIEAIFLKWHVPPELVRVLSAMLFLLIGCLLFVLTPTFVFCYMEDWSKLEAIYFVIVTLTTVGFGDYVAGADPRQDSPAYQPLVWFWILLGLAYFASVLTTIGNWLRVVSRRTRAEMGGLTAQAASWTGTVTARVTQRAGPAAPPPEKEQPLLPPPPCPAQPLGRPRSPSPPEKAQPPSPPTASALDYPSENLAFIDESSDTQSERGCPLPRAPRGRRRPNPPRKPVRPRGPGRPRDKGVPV
Assay: Whole cell patch clamp recordings in HEK 293 cells transiently transfected with h-TRAAK
Format: cell-based
Description: Electrophysiological Recordings in HEK293 Cells
For whole cell patch clamp recordings cells were placed on the stage of an inverted microscope and continuously superfused with a solution containing, in mM: NaCl 150, KCl 5, HEPES 10, CaCl2 1 and MgCl2 3; pH with NaOH. The patch pipette solution contained in mM: KCl 150, HEPES 10, MgCl2 3 and EGTA 5; pH7.2 with KOH. When cells were voltage clamped at a test potential of −80 mV depolarising pulses elicited rapidly activating, non-inactivating outward currents. At a test potential of +10 mV these currents were considerably greater in amplitude, 300.4 pA±92.9 (n=5) than those recorded from untransfected wild type HEK 293 cells, 94.8 pA +12.6 (n=15). h-TRAAK-mediated currents were potentiated by arachidonic acid over a voltage range from −140 to +60 mV.

fold increase in h-TRAAK-mediated current (10 μM arachidonic acid, test potential of +10 mV): 7.9 ±3.0 fold
effect on h-TRAAK-mediated currents (voltage range from −140 to +60 mV): potentiated
Compound: CCCCC/C=C\C/C=C\C/C=C\C/C=C\CCCC(=O)O [arachidonic acid]

From patent publication US6426197B1, “Polynucleotides encoding a human potassium channel” (SmithKline Beecham, P.L.C., priority 1998, dated 2002)
